Assay results reported in the NIST ThermoML archive (doi:10.1021/je1000796).

Test: mn = molality of the nth substance listed, in mol/kg
Settings: 101 kPa, Liquid; for viscosity: Capillary tube (Ostwald / Ubbelohde) method

COC(=O)[C@H](c1ccccc1Cl)N1CCc2sccc2C1.O=S(=O)(O)O [(S)-(+)-Clopidogrel hydrogen sulfate] + CCO
Settings | mass density [kg/m3] | viscosity [mPa·s]
278.15 K, m1 = 0.001 | 801 | 1.632
278.15 K, m1 = 0.003 | 801.6 | 1.638
278.15 K, m1 = 0.005 | 802.3 | 1.645
278.15 K, m1 = 0.007 | 802.9 | 1.665
278.15 K, m1 = 0.009 | 803.5 | 1.671
278.15 K, m1 = 0.011 | 803.9 | 1.674
278.15 K, m1 = 0.013 | 804.5 | 1.68
278.15 K, m1 = 0.015 | 805 | 1.687
283.15 K, m1 = 0.001 | 798 | 1.476
283.15 K, m1 = 0.003 | 798.4 | 1.484
283.15 K, m1 = 0.005 | 798.9 | 1.489
283.15 K, m1 = 0.007 | 799.3 | 1.502
283.15 K, m1 = 0.009 | 799.8 | 1.505
283.15 K, m1 = 0.011 | 800.1 | 1.508
283.15 K, m1 = 0.013 | 800.6 | 1.514
283.15 K, m1 = 0.015 | 800.9 | 1.523
288.15 K, m1 = 0.001 | 794.2 | 1.335
288.15 K, m1 = 0.003 | 794.5 | 1.343
288.15 K, m1 = 0.005 | 794.9 | 1.346
288.15 K, m1 = 0.007 | 795.4 | 1.359
288.15 K, m1 = 0.009 | 795.9 | 1.36
288.15 K, m1 = 0.011 | 796.2 | 1.361
288.15 K, m1 = 0.013 | 796.5 | 1.365
288.15 K, m1 = 0.015 | 796.8 | 1.373
293.15 K, m1 = 0.001 | 790.4 | 1.211
293.15 K, m1 = 0.003 | 790.8 | 1.214
293.15 K, m1 = 0.005 | 791 | 1.223
293.15 K, m1 = 0.007 | 791.4 | 1.235
293.15 K, m1 = 0.009 | 791.8 | 1.236
293.15 K, m1 = 0.011 | 792.2 | 1.238
293.15 K, m1 = 0.013 | 792.8 | 1.243
293.15 K, m1 = 0.015 | 793 | 1.25
298.15 K, m1 = 0.001 | 786.1 | 1.101
298.15 K, m1 = 0.003 | 786.6 | 1.103
298.15 K, m1 = 0.005 | 786.9 | 1.109
298.15 K, m1 = 0.007 | 787.2 | 1.12
298.15 K, m1 = 0.009 | 787.7 | 1.121
298.15 K, m1 = 0.011 | 788 | 1.123
298.15 K, m1 = 0.013 | 788.4 | 1.126
298.15 K, m1 = 0.015 | 788.7 | 1.131
303.15 K, m1 = 0.001 | 781.2 | 0.9985
303.15 K, m1 = 0.003 | 781.8 | 1.003
303.15 K, m1 = 0.005 | 782.1 | 1.006
303.15 K, m1 = 0.007 | 782.5 | 1.012
303.15 K, m1 = 0.009 | 782.9 | 1.015
303.15 K, m1 = 0.011 | 783.2 | 1.017
303.15 K, m1 = 0.013 | 783.4 | 1.019
303.15 K, m1 = 0.015 | 783.9 | 1.023
308.15 K, m1 = 0.001 | 778.2 | 0.9134
308.15 K, m1 = 0.003 | 778.5 | 0.9149
308.15 K, m1 = 0.005 | 778.7 | 0.9166
308.15 K, m1 = 0.007 | 778.9 | 0.9224
308.15 K, m1 = 0.009 | 779.1 | 0.9236
308.15 K, m1 = 0.011 | 779.4 | 0.9256
308.15 K, m1 = 0.013 | 779.8 | 0.928
308.15 K, m1 = 0.015 | 780.2 | 0.9307
313.15 K, m1 = 0.001 | 773.7 | 0.8328
313.15 K, m1 = 0.003 | 773.9 | 0.8348
313.15 K, m1 = 0.005 | 774.2 | 0.8359
313.15 K, m1 = 0.007 | 774.5 | 0.8409
313.15 K, m1 = 0.009 | 774.8 | 0.8441
313.15 K, m1 = 0.011 | 775.2 | 0.8458
313.15 K, m1 = 0.013 | 775.7 | 0.8473
313.15 K, m1 = 0.015 | 776 | 0.8496

COC(=O)[C@H](c1ccccc1Cl)N1CCc2sccc2C1.O=S(=O)(O)O [(S)-(+)-Clopidogrel hydrogen sulfate] + CO
Settings | mass density [kg/m3] | viscosity [mPa·s]
278.15 K, m1 = 0.001 | 803.1 | 0.7441
278.15 K, m1 = 0.003 | 803.5 | 0.747
278.15 K, m1 = 0.005 | 804 | 0.7487
278.15 K, m1 = 0.007 | 804.4 | 0.7505
278.15 K, m1 = 0.009 | 804.8 | 0.7525
278.15 K, m1 = 0.011 | 805.2 | 0.7529
278.15 K, m1 = 0.013 | 805.9 | 0.7577
278.15 K, m1 = 0.015 | 806.4 | 0.7582
283.15 K, m1 = 0.001 | 799.2 | 0.6924
283.15 K, m1 = 0.003 | 799.5 | 0.6943
283.15 K, m1 = 0.005 | 800.1 | 0.6961
283.15 K, m1 = 0.007 | 800.4 | 0.698
283.15 K, m1 = 0.009 | 801.1 | 0.6998
283.15 K, m1 = 0.011 | 801.5 | 0.7006
283.15 K, m1 = 0.013 | 802 | 0.7039
283.15 K, m1 = 0.015 | 802.6 | 0.705
288.15 K, m1 = 0.001 | 795.4 | 0.6416
288.15 K, m1 = 0.003 | 795.8 | 0.6446
288.15 K, m1 = 0.005 | 796.2 | 0.6475
288.15 K, m1 = 0.007 | 796.4 | 0.6487
288.15 K, m1 = 0.009 | 797.1 | 0.6494
288.15 K, m1 = 0.011 | 797.5 | 0.6502
288.15 K, m1 = 0.013 | 798.2 | 0.6527
288.15 K, m1 = 0.015 | 799 | 0.6538
293.15 K, m1 = 0.001 | 792.3 | 0.6006
293.15 K, m1 = 0.003 | 792.5 | 0.6022
293.15 K, m1 = 0.005 | 792.9 | 0.6042
293.15 K, m1 = 0.007 | 793.3 | 0.6049
293.15 K, m1 = 0.009 | 793.6 | 0.606
293.15 K, m1 = 0.011 | 794 | 0.6077
293.15 K, m1 = 0.013 | 794.5 | 0.6096
293.15 K, m1 = 0.015 | 795.3 | 0.6111
298.15 K, m1 = 0.001 | 788.1 | 0.5596
298.15 K, m1 = 0.003 | 788.2 | 0.562
298.15 K, m1 = 0.005 | 788.4 | 0.5631
298.15 K, m1 = 0.007 | 788.7 | 0.5638
298.15 K, m1 = 0.009 | 789 | 0.5652
298.15 K, m1 = 0.011 | 789.3 | 0.5661
298.15 K, m1 = 0.013 | 790 | 0.5684
298.15 K, m1 = 0.015 | 790.8 | 0.5694
303.15 K, m1 = 0.001 | 784 | 0.5212
303.15 K, m1 = 0.003 | 784.1 | 0.5236
303.15 K, m1 = 0.005 | 784.3 | 0.5254
303.15 K, m1 = 0.007 | 784.5 | 0.5262
303.15 K, m1 = 0.009 | 785 | 0.5269
303.15 K, m1 = 0.011 | 785.3 | 0.5276
303.15 K, m1 = 0.013 | 785.8 | 0.5304
303.15 K, m1 = 0.015 | 786.6 | 0.5315
308.15 K, m1 = 0.001 | 779.7 | 0.487
308.15 K, m1 = 0.003 | 779.8 | 0.4898
308.15 K, m1 = 0.005 | 780 | 0.4901
308.15 K, m1 = 0.007 | 780.3 | 0.4906
308.15 K, m1 = 0.009 | 780.7 | 0.4919
308.15 K, m1 = 0.011 | 781.1 | 0.4936
308.15 K, m1 = 0.013 | 781.5 | 0.4943
308.15 K, m1 = 0.015 | 782.3 | 0.4967
313.15 K, m1 = 0.001 | 775.3 | 0.4567
313.15 K, m1 = 0.003 | 775.5 | 0.4589
313.15 K, m1 = 0.005 | 775.7 | 0.4595
313.15 K, m1 = 0.007 | 775.9 | 0.4601
313.15 K, m1 = 0.009 | 776 | 0.4604
313.15 K, m1 = 0.011 | 776.4 | 0.462
313.15 K, m1 = 0.013 | 777 | 0.4631
313.15 K, m1 = 0.015 | 777.8 | 0.4647
